Source: PubChem BioAssay AID180 (DTP/NCI, 2004)
“And” between values parts separate entries of the source, which are not always exact repeats. Equal values may be shown once.

Tested on: BDF1 mice, Adenocarcinoma 755 s.c., tumor weight T/C
Assay: NCI In Vivo Anticancer Drug Screen. Data for tumor model Adenocarcinoma 755 (subcutaneous) in B6D2F1 (BDF1) mice
Conditions: endpoint: mean tumor weight, higher = larger tumour
Protocol: The antitumor activity of compounds was measured in mice bearing transplantable tumors. Survival or tumor size were measured and the results are expressed as the measurement made in the treated group (T) divided by the measurement made in the vehicle treated control group (C). The tumor model used in this assay is Adenocarcinoma 755 (subcutaneous) in B6D2F1 (BDF1) mice

[1] = dose: 25.0 mg/kg/injection, schedule: Q01DX011 (ip), vehicle: carboxymethylcellulose (CMC)
[2] = dose: 50.0 mg/kg/injection, schedule: Q01DX011 (ip), vehicle: carboxymethylcellulose (CMC)
[3] = dose: 100.0 mg/kg/injection, schedule: Q01DX011 (ip), vehicle: carboxymethylcellulose (CMC)
[4] = dose: 30.0 mg/kg/injection, schedule: Q01DX011 (ip), vehicle: carboxymethylcellulose (CMC)
[5] = dose: 60.0 mg/kg/injection, schedule: Q01DX011 (ip), vehicle: carboxymethylcellulose (CMC)
[6] = dose: 75.0 mg/kg/injection, schedule: Q01DX011 (ip), vehicle: methylcellulose (MC)
[7] = dose: 25.0 mg/kg/injection, schedule: Q01DX011 (ip), vehicle: methylcellulose (MC)
[8] = dose: 50.0 mg/kg/injection, schedule: Q01DX011 (ip), vehicle: methylcellulose (MC)
[9] = dose: 100.0 mg/kg/injection, schedule: Q01DX011 (ip), vehicle: methylcellulose (MC)

NC(=O)NO
T/C (dose: 15.97 mg/kg/injection, schedule: Q01DX011 (ip), vehicle: carboxymethylcellulose (CMC)): 76 % of control | T/C [1]: 111 % of control | T/C (dose: 31.93 mg/kg/injection, schedule: Q01DX011 (ip), vehicle: carboxymethylcellulose (CMC)): 67 % of control | T/C [2]: 83 % of control | T/C (dose: 51.08 mg/kg/injection, schedule: Q01DX011 (ip), vehicle: carboxymethylcellulose (CMC)): 56 % of control | T/C (dose: 62.5 mg/kg/injection, schedule: Q01DX011 (ip), vehicle: carboxymethylcellulose (CMC)): 31 % of control | T/C (dose: 63.85 mg/kg/injection, schedule: Q01DX011 (ip), vehicle: carboxymethylcellulose (CMC)): 41 % of control and 47 % of control | T/C (dose: 85.13 mg/kg/injection, schedule: Q01DX011 (ip), vehicle: carboxymethylcellulose (CMC)): 53 % of control | T/C [3]: 58 % of control | T/C (dose: 125.0 mg/kg/injection, schedule: Q01DX011 (ip), vehicle: carboxymethylcellulose (CMC)): 44 % of control | T/C (dose: 127.7 mg/kg/injection, schedule: Q01DX011 (ip), vehicle: carboxymethylcellulose (CMC)): 22 % of control and 39 % of control | T/C (dose: 200.0 mg/kg/injection, schedule: Q01DX011 (ip), vehicle: carboxymethylcellulose (CMC)): 13 % of control | T/C (dose: 250.0 mg/kg/injection, schedule: Q01DX011 (ip), vehicle: carboxymethylcellulose (CMC)): 6 % of control and 12 % of control and 19 % of control | T/C (dose: 500.0 mg/kg/injection, schedule: Q01DX011 (ip), vehicle: carboxymethylcellulose (CMC)): 19 % of control

O=c1[nH]c(=O)c2nc(Br)n(C3OC(CO)C(O)C3O)c2[nH]1 (stereo not given)
T/C [4]: 119 % of control | T/C [5]: 105 % of control | T/C (dose: 120.0 mg/kg/injection, schedule: Q01DX011 (ip), vehicle: carboxymethylcellulose (CMC)): 68 % of control | T/C (dose: 240.0 mg/kg/injection, schedule: Q01DX011 (ip), vehicle: carboxymethylcellulose (CMC)): 86 % of control

O=C(O)/C=C\C(=O)Nc1nccs1
T/C [1]: 80 % of control

S=c1nc[nH]c2c1ncn2C1CCCS1 (stereo not given)
T/C [6]: 114 % of control | T/C (dose: 225.0 mg/kg/injection, schedule: Q01DX011 (ip), vehicle: methylcellulose (MC)): 43 % of control

O=P(OCC1OC(n2cnc3c(=S)nc[nH]c32)C(O)C1O)(Oc1ccccc1)Oc1ccccc1 (stereo not given)
T/C (dose: 4.0 mg/kg/injection, schedule: Q01DX011 (ip), vehicle: methylcellulose (MC)): 89 % of control | T/C (dose: 8.0 mg/kg/injection, schedule: Q01DX011 (ip), vehicle: methylcellulose (MC)): 88 % of control | T/C (dose: 16.0 mg/kg/injection, schedule: Q01DX011 (ip), vehicle: methylcellulose (MC)): 41 % of control | T/C (dose: 31.0 mg/kg/injection, schedule: Q01DX011 (ip), vehicle: methylcellulose (MC)): 39 % of control | T/C (dose: 62.0 mg/kg/injection, schedule: Q01DX011 (ip), vehicle: methylcellulose (MC)): 36 % of control | T/C (dose: 125.0 mg/kg/injection, schedule: Q01DX011 (ip), vehicle: methylcellulose (MC)): 34 % of control

CC12CCC3C(CCC4CC=CCC43C)C1CCC2=O (stereo not given)
T/C (dose: 62.55 mg/kg/injection, schedule: Q01DX011 (sc), vehicle: steriod suspending solution): 90 % of control | T/C (dose: 125.0 mg/kg/injection, schedule: Q01DX011 (sc), vehicle: steriod suspending solution): 99 % of control | T/C (dose: 250.0 mg/kg/injection, schedule: Q01DX011 (sc), vehicle: steriod suspending solution): 60 % of control | T/C (dose: 500.0 mg/kg/injection, schedule: Q01DX011 (sc), vehicle: steriod suspending solution): 84 % of control

CCCCNP(=O)(N1CC1C)N1CC1C (stereo not given)
T/C (dose: 7.0 mg/kg/injection, schedule: Q01DX011 (ip), vehicle: saline): 53 % of control | T/C (dose: 14.0 mg/kg/injection, schedule: Q01DX011 (ip), vehicle: saline): 53 % of control | T/C (dose: 28.0 mg/kg/injection, schedule: Q01DX011 (ip), vehicle: saline): 25 % of control | T/C (dose: 56.0 mg/kg/injection, schedule: Q01DX011 (ip), vehicle: saline): 1 % of control

O=C(O)c1[nH]c(=O)[nH]c(=O)c1F
T/C (dose: 1.5 mg/kg/injection, schedule: Q01DX011 (ip), vehicle: other): 53 % of control | T/C (dose: 3.0 mg/kg/injection, schedule: Q01DX011 (ip), vehicle: other): 79 % of control | T/C (dose: 6.0 mg/kg/injection, schedule: Q01DX011 (ip), vehicle: other): 37 % of control | T/C (dose: 12.0 mg/kg/injection, schedule: Q01DX011 (ip), vehicle: other): 10 % of control

CCN(CC)C(=O)CSc1nc(N)nc2nc[nH]c12
T/C [7]: 45 % of control | T/C [8]: 12 % of control | T/C [9]: 10 % of control | T/C (dose: 200.0 mg/kg/injection, schedule: Q01DX011 (ip), vehicle: methylcellulose (MC)): 3 % of control and 13 % of control | T/C (dose: 400.0 mg/kg/injection, schedule: Q01DX011 (ip), vehicle: methylcellulose (MC)): 4 % of control

c1ccc(CSc2ncnc3nc[nH]c23)nc1
T/C (dose: 0.75 mg/kg/injection, schedule: Q01DX011 (ip), vehicle: carboxymethylcellulose (CMC)): 102 % of control | T/C (dose: 1.5 mg/kg/injection, schedule: Q01DX011 (ip), vehicle: carboxymethylcellulose (CMC)): 40 % of control | T/C (dose: 3.0 mg/kg/injection, schedule: Q01DX011 (ip), vehicle: carboxymethylcellulose (CMC)): 26 % of control | T/C (dose: 6.0 mg/kg/injection, schedule: Q01DX011 (ip), vehicle: carboxymethylcellulose (CMC)): 9 % of control | T/C (dose: 12.0 mg/kg/injection, schedule: Q01DX011 (ip), vehicle: carboxymethylcellulose (CMC)): 7 % of control | T/C [2]: 5 % of control | T/C [3]: 4 % of control

CN(C)N=Nc1ccc(CCC(=O)NN)cc1
T/C (dose: 10.0 mg/kg/injection, schedule: Q01DX011 (ip), vehicle: saline): 63 % of control | T/C (dose: 15.0 mg/kg/injection, schedule: Q01DX011 (ip), vehicle: saline): 56 % of control | T/C (dose: 20.0 mg/kg/injection, schedule: Q01DX011 (ip), vehicle: saline): 44 % of control | T/C (dose: 31.0 mg/kg/injection, schedule: Q01DX011 (ip), vehicle: saline): 40 % of control

O=C([O][Hg][CH2]C1CC(O)CC([CH2][Hg][O]C(=O)c2ccccc2)O1)c1ccccc1 (stereo not given)
T/C [1]: 83 % of control | T/C [2]: 33 % of control

Cn1cnc2nc[nH]c2c1=S
T/C [7]: 64 % of control | T/C [6]: 75 % of control

O=c1[nH]c(=O)n(C2CC(O)C(CO)O2)cc1F (stereo not given)
T/C (dose: 13.12 mg/kg/injection, schedule: Q01DX011 (ip), vehicle: carboxymethylcellulose (CMC)): 124 % of control | T/C (dose: 15.0 mg/kg/injection, schedule: Q01DX011 (ip), vehicle: carboxymethylcellulose (CMC)): 72 % of control | T/C (dose: 19.0 mg/kg/injection, schedule: Q01DX011 (ip), vehicle: other): 66 % of control | T/C [7]: 54 % of control | T/C (dose: 26.25 mg/kg/injection, schedule: Q01DX011 (ip), vehicle: carboxymethylcellulose (CMC)): 68 % of control | T/C (dose: 30.0 mg/kg/injection, schedule: Q01DX006 (ip), vehicle: other): 80 % of control | T/C [4]: 37 % of control | T/C (dose: 37.5 mg/kg/injection, schedule: Q01DX011 (ip), vehicle: other): 28 % of control | T/C [8]: 25 % of control | T/C (dose: 52.5 mg/kg/injection, schedule: Q01DX011 (ip), vehicle: carboxymethylcellulose (CMC)): 59 % of control | T/C (dose: 60.0 mg/kg/injection, schedule: Q01DX006 (ip), vehicle: other): 37 % of control | T/C [5]: 14 % of control | T/C (dose: 75.0 mg/kg/injection, schedule: Q01DX011 (ip), vehicle: other): 3 % of control | T/C [9]: 6 % of control | T/C (dose: 105.0 mg/kg/injection, schedule: Q01DX011 (ip), vehicle: carboxymethylcellulose (CMC)): 54 % of control | T/C (dose: 120.0 mg/kg/injection, schedule: Q01DX006 (ip), vehicle: other): 29 % of control | T/C (dose: 121.0 mg/kg/injection, schedule: Q01DX011 (ip), vehicle: carboxymethylcellulose (CMC)): 3 % of control | T/C (dose: 240.0 mg/kg/injection, schedule: Q01DX006 (ip), vehicle: other): 6 % of control | T/C (dose: 480.0 mg/kg/injection, schedule: Q01DX006 (ip), vehicle: other): 2 % of control

C[C@H]1C[C@H]2[C@@H]3CC[C@](O)(C(=O)CO)[C@@]3(C)C[C@H](O)[C@]2(F)[C@@]2(C)C=CC(=O)C=C12
T/C (dose: 7.0 mg/kg/injection, schedule: Q01DX011 (sc), vehicle: steriod suspending solution): 39 % of control and 49 % of control | T/C (dose: 30.0 mg/kg/injection, schedule: Q01DX011 (sc), vehicle: steriod suspending solution): 7 % of control and 16 % of control
